Measurements taken from patent publication US11014911B2, “CDK2 inhibitors” (Pfizer Inc., priority 2019, dated 2021).

Target: CDK2/Cyclin E1 full length (Homo sapiens (Human), UniProt P24941)
Test: CDK2/Cyclin E1 full length mobility shift assay
Assay type: biochemical

Compound	Ki [nM]
Cc1ncc(CC(=O)Nc2cc([C@@H]3CC[C@H](OC(=O)NC4CCOCC4)C3)[nH]n2)s1 [Example 500, (1S,3R)-3-(3-{[(2-methyl-1,3-thiazol-5-yl)acetyl]amino}-1H-pyrazol-5-yl)cyclopentyl tetrahydro-2H-pyran-4-ylcarbamate]	2.36
CC[C@H](C)NC(=O)O[C@@H]1CC[C@H](c2cc(NC(=O)c3cnn(C)c3)n[nH]2)C1 [Example 320, (1R,3S)-3-(3-{[(1-methyl-1H-pyrazol-4-yl)carbonyl]amino}-1H-pyrazol-5-yl)cyclopentyl (2S)-butan-2-ylcarbamate]	2.95
Cn1ccc(CC(=O)Nc2cc([C@H]3CC[C@@H](OC(=O)NC4(C)CCOCC4)C3)[nH]n2)n1 [Example 507, (1R,3S)-3-(3-{[(1-methyl-1H-pyrazol-3-yl)acetyl]amino}-1H-pyrazol-5-yl)cyclopentyl (4-methyltetrahydro-2H-pyran-4-yl)carbamate]	3.69
Cc1ncc(CC(=O)Nc2cc([C@@H]3CC[C@H](OC(=O)NC(C)C)C3)[nH]n2)s1 [Example 26]	0.21
CC[C@H](C)NC(=O)O[C@@H]1CC[C@H](c2cc(NC(=O)Cc3cn(C)nc3OC)n[nH]2)C1 [Example 351, (1R,3S)-3-(3-{[(3-methoxy-1-methyl-1H-pyrazol-4-yl)acetyl]amino}-1H-pyrazol-5-yl)cyclopentyl (2S)-butan-2-ylcarbamate]	2.77
CC[C@H](C)NC(=O)O[C@@H]1CC[C@H](c2cc(NC(=O)Cc3nnc(C)o3)n[nH]2)C1 [Example 334, (1R,3S)-3-(3-{[(5-methyl-1,3,4-oxadiazol-2-yl)acetyl]amino}-1H-pyrazol-5-yl)cyclopentyl (2S)-butan-2-ylcarbamate]	1.6
CC(CC(F)(F)F)NC(=O)O[C@@H]1CC[C@H](c2cc(NC(=O)Cc3ccon3)n[nH]2)C1 (single isomer, unassigned) [Example 63]	1.25
Cc1ccnc(CC(=O)Nc2cc([C@H]3CC[C@@H](OC(=O)NC(C)(C)C)C3)[nH]n2)c1Cl [Example 313, (1R,3S)-3-(3-{[(3-chloro-4-methylpyridin-2-yl)acetyl]amino}-1H-pyrazol-5-yl)cyclopentyl tert-butylcarbamate]	0.63
Cc1nc(CC(=O)Nc2cc([C@H]3CC[C@@H](OC(=O)NC(C)(C)C)C3)[nH]n2)ccc1Cl [Example 312, (1R,3S)-3-(3-{[(5-chloro-6-methylpyridin-2-yl)acetyl]amino}-1H-pyrazol-5-yl)cyclopentyl tert-butylcarbamate]	0.43
CC(C)NC(=O)O[C@@H]1CC[C@H](c2cc(NC(=O)Cc3cccc4scnc34)n[nH]2)C1 [Example 283, (1R,3S)-3-{3-[(1,3-benzothiazol-4-ylacetyl)amino]-1H-pyrazol-5-yl}cyclopentyl propan-2-ylcarbamate]	4.6
CCC(CO)CNC(=O)O[C@@H]1CC[C@H](c2cc(NC(=O)Cc3cnc(C)o3)n[nH]2)C1 (single isomer, unassigned) [Example 526]	3.95
CC[C@H](C)NC(=O)O[C@@H]1CC[C@H](c2cc(NC(=O)Cc3cnn(CC)n3)n[nH]2)C1 [Example 339, (1R,3S)-3-(3-{[(2-ethyl-2H-1,2,3-triazol-4-yl)acetyl]amino}-1H-pyrazol-5-yl)cyclopentyl (2S)-butan-2-ylcarbamate]	0.66
Cn1ncc(CC(=O)Nc2cc([C@H]3CC[C@@H](OC(=O)NC4(C)CCOC4)C3)[nH]n2)c1C(F)(F)F (single isomer, unassigned) [Example 496]	2.25
Cc1ncc(CC(=O)Nc2cc([C@H]3CC[C@@H](OC(=O)N[C@H]4CCC[C@H]4C)C3)[nH]n2)s1 [Example 464, (1R,3S)-3-(3-{[(2-methyl-1,3-thiazol-5-yl)acetyl]amino}-1H-pyrazol-5-yl)cyclopentyl [(1S,2R)-2-methylcyclopentyl]carbamate]	2.63
CC(CC(F)(F)F)N(C)C(=O)O[C@@H]1CC[C@H](c2cc(NC(=O)c3cnnn3C)n[nH]2)C1 (single isomer, unassigned) [Example 412]	0.19
COC[C@H](C)NC(=O)O[C@@H]1CC[C@H](c2cc(NC(=O)Cc3ncc(OC)s3)n[nH]2)C1 [Example 522, (1R,3S)-3-(3-{[(5-methoxy-1,3-thiazol-2-yl)acetyl]amino}-1H-pyrazol-5-yl)cyclopentyl [(2S)-1-methoxypropan-2-yl]carbamate]	3.05
Cc1cnc(CC(=O)Nc2cc([C@H]3CC[C@@H](OC(=O)NC4(C)CC4)C3)[nH]n2)cc1Cl [Example 131]	0.2
CCC1CCN1C(=O)O[C@@H]1CC[C@H](c2cc(NC(=O)Cc3ncc(C)o3)n[nH]2)C1 (single isomer, unassigned) [Example 600]	2.12
COc1ccc(CC(=O)Nc2cc([C@H]3CC[C@@H](OC(=O)N[C@H]4CC[C@](C)(O)CC4)C3)[nH]n2)cc1 [Example 567, (1R,3S)-3-(3-{[(4-methoxyphenyl)acetyl]amino}-1H-pyrazol-5-yl)cyclopentyl (trans-4-hydroxy-4-methylcyclohexyl)carbamate]	1.61

Compound	Ki [nM]
COC[C@H](C)NC(=O)O[C@@H]1CC[C@H](c2cc(NC(=O)Cc3ccccc3)[nH]n2)C1 [Example 517, (1R,3S)-3-{5-[(phenylacetyl)amino]-1H-pyrazol-3-yl}cyclopentyl [(2S)-1-methoxypropan-2-yl]carbamate]	1.29
Cc1cnc(CC(=O)Nc2cc([C@H]3CC[C@@H](OC(=O)N4[C@@H](C)C[C@@H]4C)C3)[nH]n2)cn1 [Example 608, (1R,3S)-3-(3-{[(5-methylpyrazin-2-y)acetyl]amino}-1H-pyrazol-5-yl)cyclopentyl (2S,4S)-2,4-dimethylazetidine-1-carboxylate]	1.11
Cc1cc(CC(=O)Nc2cc([C@H]3CC[C@@H](OC(=O)N4CCOC[C@H]4C)C3)[nH]n2)on1 [Example 643, (1R,3S)-3-(3-{[(3-methyl-1,2-oxazol-5-yl)acetyl]amino}-1H-pyrazol-5-yl)cyclopentyl (3R)-3-methylmorpholine-4-carboxylate]	1.84
COCc1cc(C(=O)Nc2cc([C@H]3CC[C@@H](OC(=O)N[C@@H](C)COC)C3)n[nH]2)n(C)n1 [Example 521, (1R,3S)-3-[5-({[3-(methoxymethyl)-1-methyl-1H-pyrazol-5-yl]carbonyl}amino)-1H-pyrazol-3-yl]cyclopentyl [(2S)-1-methoxypropan-2-yl]carbamate]	1.95
CC[C@H](C)NC(=O)O[C@@H]1CC[C@H](c2cc(NC(=O)Cc3c(C)noc3C)n[nH]2)C1 [Example 340, (1R,3S)-3-(3-{[(3,5-dimethyl-1,2-oxazol-4-yl)acetyl]amino}-1H-pyrazol-5-yl)cyclopentyl (2S)-butan-2-ylcarbamate]	2.24
CC1(NC(=O)O[C@@H]2CC[C@H](c3cc(NC(=O)CC4COc5ccccc54)n[nH]3)C2)CCOC1 (single isomer, unassigned) [Example 489]	3.71
COc1cc(C(=O)Nc2cc([C@H]3CC[C@@H](OC(=O)N[C@@H](C)CC(F)(F)F)C3)[nH]n2)n(C)n1 [Example 94]	0.15
Cc1cnc(CC(=O)Nc2cc([C@H]3CC[C@@H](OC(=O)NC(C)CC(F)(F)F)C3)[nH]n2)cn1 (single isomer, unassigned) [Example 73]	2.31
COc1cc(CC(=O)Nc2cc([C@H]3CC[C@@H](OC(=O)NC(C)C(C)(F)F)C3)[nH]n2)ccn1 (single isomer, unassigned) [Example 392]	3.14
COc1cnc(CC(=O)Nc2cc([C@H]3CC[C@@H](OC(=O)NC4(C)CCOC4)C3)[nH]n2)cn1 (single isomer, unassigned) [Example 486]	1.46
Cc1ncc(CC(=O)Nc2cc([C@H]3CC[C@@H](OC(=O)NCC(F)F)C3)[nH]n2)s1 [Example 249, (1R,3S)-3-(3-{[(2-methyl-1,3-thiazol-5-yl)acetyl]amino}-1H-pyrazol-5-yl)cyclopentyl (2,2-difluoroethyl)carbamate]	2.32
CCC(O)CNC(=O)O[C@@H]1CC[C@H](c2cc(NC(=O)Cc3cc(F)cc(F)c3)n[nH]2)C1 (single isomer, unassigned) [Example 542]	2.41
CCC1(NC(=O)O[C@@H]2CC[C@H](c3cc(NC(=O)Cc4cnc(C)cn4)n[nH]3)C2)CC1 [Example 449, (1R,3S)-3-(3-{[(5-methylpyrazin-2-yl)acetyl]amino}-1H-pyrazol-5-yl)cyclopentyl (1-ethylcyclopropyl)carbamate]	0.39
CCCNC(=O)O[C@@H]1CC[C@H](c2cc(NC(=O)Cc3ccccc3S(N)(=O)=O)n[nH]2)C1 [Example 204, (1R,3S)-3-(3-{[(2-sulfamoylphenyl)acetyl]-amino}-1H-pyrazol-5-yl)cyclopentyl propylcarbamate]	1.13
CC[C@H](C)NC(=O)O[C@@H]1CC[C@H](c2cc(NC(=O)Cc3cncc(C(F)(F)F)n3)n[nH]2)C1 [Example 362, (1R,3S)-3-[3-({[6-(trifluoromethyl)pyrazin-2-yl]acetyl}amino)-1H-pyrazol-5-yl]cyclopentyl (2S)-butan-2-ylcarbamate]	0.84
CCCNC(=O)O[C@@H]1CC[C@H](c2cc(NC(=O)Cc3ccc(COC)cc3S(C)(=O)=O)[nH]n2)C1 [Example 215, (1R,3S)-3-[5-({[4-(methoxymethyl)-2-(methylsulfonyl)phenyl]acetyl}amino)-1H-pyrazol-3-yl]cyclopentyl propylcarbamate]	1.26
CC1(NC(=O)O[C@@H]2CC[C@H](c3cc(NC(=O)Cc4cc(C(F)F)ccn4)n[nH]3)C2)CC1 [Example 443, (1R,3S)-3-[3-({[4-(difluoromethyl)pyridin-2-yl]acetyl}amino)-1H-pyrazol-5-yl]cyclopentyl (1-methylcyclopropyl)carbamate]	0.36
Cc1nc(CC(=O)Nc2cc([C@H]3CC[C@@H](OC(=O)NC4(C)CC4)C3)[nH]n2)cs1 [Example 431, (1R,3S)-3-(3-{[(2-methyl-1,3-thiazol-4-yl)acetyl]amino}-1H-pyrazol-5-yl)cyclopentyl (1-methylcyclopropyl)carbamate]	1.19
COc1ccc(S(C)(=O)=O)c(CC(=O)Nc2cc([C@H]3CC[C@@H](OC(=O)NC(C)C(F)(F)F)C3)[nH]n2)c1 (single isomer, unassigned) [Example 292]	0.86
